This passage reports Activity and DC50 results from ChEMBL document CHEMBL6134799, “Auto-RapTAC: A Versatile and Sustainable Platform for the Automated Rapid Synthesis and Evaluation of PROTAC” (J Med Chem, 2025).

Calls of active or inactive are those of the source. The rule behind the calls is not given here. A value given as a limit tells only on which side of the number the result lay.

Format in all cases: cell-based
The subject of assay [1] is HeLa. The assay is described as follows: (§1) Auto-RapTAC activity at MDM2/CDK12 in human HeLa cells assessed as CDK12 degradation incubated for 24 hrs by cytoblot analysis. To be noted: dose 500-1000 nM.
Assay [2] is described as follows: as §1.
In assay [3] the test system is HeLa. The experiment in a line: Auto-RapTAC activity at MDM2/CDK12 in human HeLa cells assessed as CDK12 degradation at 500 to 1000 nM incubated for 24 hrs by cytoblot analysis relative to control. Conditions: dose 500-1000 nM.
Assay [4] deals with T1, Protein cereblon/B-cell lymphoma 6 protein (Homo sapiens, UniProt Q96SW2+P41182). The experiment in a line: Auto-RapTAC activity at CRBN/BCL6 in HEK293T cells expressing GFP-BCL6 (unknown origin) assessed as BCL6 degradation at 500 to 1000 nM incubated for 24 hrs by fluorescence based analysis. Conditions: dose 500-1000 nM.
T1 sequence (Q96SW2 whole entry, looked up, other chains not shown): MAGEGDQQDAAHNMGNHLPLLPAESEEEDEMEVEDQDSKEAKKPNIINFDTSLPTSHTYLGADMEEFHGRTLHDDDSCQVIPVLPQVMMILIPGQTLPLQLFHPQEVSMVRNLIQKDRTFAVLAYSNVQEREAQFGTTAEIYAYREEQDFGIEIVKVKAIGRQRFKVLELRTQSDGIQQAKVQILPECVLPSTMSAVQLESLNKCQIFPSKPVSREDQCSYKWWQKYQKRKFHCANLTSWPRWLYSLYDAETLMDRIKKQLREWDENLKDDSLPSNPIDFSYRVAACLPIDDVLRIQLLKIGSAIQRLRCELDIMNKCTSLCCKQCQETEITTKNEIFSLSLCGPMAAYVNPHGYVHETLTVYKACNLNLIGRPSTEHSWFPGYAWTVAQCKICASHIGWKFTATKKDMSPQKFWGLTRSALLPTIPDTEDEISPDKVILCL
For assay [5], the target named is T2, von Hippel-Lindau disease tumor suppressor/Cyclin-dependent kinase 12 (Homo sapiens, UniProt P40337+Q9NYV4). The experiment in a line: Auto-RapTAC activity at VHL/CDK12 in human HeLa cells assessed as CDK12 degradation at 500 to 1000 nM incubated for 24 hrs by cytoblot analysis relative to control. To be noted: dose 500-1000 nM.
Target sequence in this assay (P40337 whole entry, looked up): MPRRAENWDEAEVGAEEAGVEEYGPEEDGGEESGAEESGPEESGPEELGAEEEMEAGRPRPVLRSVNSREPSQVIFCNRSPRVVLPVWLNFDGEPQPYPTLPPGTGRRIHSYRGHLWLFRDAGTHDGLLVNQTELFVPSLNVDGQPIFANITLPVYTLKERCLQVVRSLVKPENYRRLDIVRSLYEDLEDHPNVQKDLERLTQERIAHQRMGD
Target sequence in this assay (Q9NYV4 whole entry, looked up): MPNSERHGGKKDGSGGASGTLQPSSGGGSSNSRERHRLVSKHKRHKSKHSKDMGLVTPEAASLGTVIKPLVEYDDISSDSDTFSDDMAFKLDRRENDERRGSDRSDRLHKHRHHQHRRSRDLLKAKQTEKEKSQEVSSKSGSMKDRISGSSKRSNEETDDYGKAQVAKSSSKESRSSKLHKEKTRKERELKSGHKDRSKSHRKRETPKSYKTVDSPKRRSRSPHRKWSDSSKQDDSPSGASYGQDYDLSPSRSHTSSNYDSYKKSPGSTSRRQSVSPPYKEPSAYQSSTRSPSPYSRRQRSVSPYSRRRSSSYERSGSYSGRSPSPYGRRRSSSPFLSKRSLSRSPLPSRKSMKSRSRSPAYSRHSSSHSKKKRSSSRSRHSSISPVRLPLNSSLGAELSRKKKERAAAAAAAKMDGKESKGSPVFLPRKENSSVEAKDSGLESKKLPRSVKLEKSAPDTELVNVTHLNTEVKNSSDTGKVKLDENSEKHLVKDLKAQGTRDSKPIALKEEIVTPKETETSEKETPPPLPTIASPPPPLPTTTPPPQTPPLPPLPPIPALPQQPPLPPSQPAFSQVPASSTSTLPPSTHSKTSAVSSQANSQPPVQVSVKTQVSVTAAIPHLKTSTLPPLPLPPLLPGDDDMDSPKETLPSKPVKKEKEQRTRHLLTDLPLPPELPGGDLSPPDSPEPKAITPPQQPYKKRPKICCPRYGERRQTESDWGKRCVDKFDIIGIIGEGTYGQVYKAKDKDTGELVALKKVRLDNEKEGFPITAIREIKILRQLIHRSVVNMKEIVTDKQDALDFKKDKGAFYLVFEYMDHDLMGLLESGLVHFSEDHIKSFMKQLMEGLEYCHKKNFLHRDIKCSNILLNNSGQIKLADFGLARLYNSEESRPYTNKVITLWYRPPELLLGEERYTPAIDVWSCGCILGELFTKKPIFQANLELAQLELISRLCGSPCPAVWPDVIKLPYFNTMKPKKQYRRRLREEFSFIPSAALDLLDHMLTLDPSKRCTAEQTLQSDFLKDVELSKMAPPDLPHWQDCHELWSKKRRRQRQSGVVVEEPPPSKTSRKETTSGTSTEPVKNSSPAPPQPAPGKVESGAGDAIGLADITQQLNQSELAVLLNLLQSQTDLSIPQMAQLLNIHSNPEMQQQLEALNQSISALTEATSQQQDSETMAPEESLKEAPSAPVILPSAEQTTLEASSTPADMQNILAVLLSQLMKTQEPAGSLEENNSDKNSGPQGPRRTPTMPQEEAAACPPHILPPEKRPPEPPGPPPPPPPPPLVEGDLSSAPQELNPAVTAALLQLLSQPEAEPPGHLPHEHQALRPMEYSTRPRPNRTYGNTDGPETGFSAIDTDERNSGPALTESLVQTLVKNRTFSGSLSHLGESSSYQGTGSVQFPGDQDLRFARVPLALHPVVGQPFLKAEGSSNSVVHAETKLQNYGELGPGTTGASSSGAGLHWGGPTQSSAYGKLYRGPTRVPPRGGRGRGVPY
Assay [6] deals with von Hippel-Lindau disease tumor suppressor/B-cell lymphoma 6 protein (Homo sapiens, UniProt P40337+P41182). The assay is described as follows: Auto-RapTAC activity at VHL/BCL6 in HEK293T cells expressing GFP-BCL6 (unknown origin) assessed as BCL6 degradation incubated for 24 hrs by fluorescence based analysis.
von Hippel-Lindau disease tumor suppressor/B-cell lymphoma 6 protein, sequence (P40337 whole entry, looked up, other chains not shown): as the sequence (P40337 whole entry, looked up) above
Another assay has as its system HEK293T. The assay is described as follows: Auto-RapTAC activity at MDM2/BCL6 in HEK293T cells expressing GFP-BCL6 (unknown origin) assessed as BCL6 degradation at 500 to 1000 nM incubated for 24 hrs by fluorescence based analysis. Conditions: Homo sapiens, dose 500-1000 nM.
The target of assay [7] is T2, von Hippel-Lindau disease tumor suppressor/Cyclin-dependent kinase 12. The experiment in a line: Auto-RapTAC activity at VHL/CDK12 in human HeLa cells assessed as CDK12 degradation incubated for 24 hrs by cytoblot analysis.
Assay [8] addresses Protein cereblon/Cyclin-dependent kinase 2 (Homo sapiens, UniProt P24941+Q96SW2). The assay is described as follows: Auto-RapTAC activity at CRBN/CDK2 in human NCI-H1299 cells assessed as CDK2 degradation incubated for 24 hrs by Western blot analysis.
For assay [9], the target named is T1, Protein cereblon/B-cell lymphoma 6 protein. The experiment in a line: Auto-RapTAC activity at CRBN/BCL6 in HEK293T cells expressing GFP-BCL6 (unknown origin) assessed as BCL6 degradation incubated for 24 hrs by fluorescence based analysis.

For the compound `CCOC(=O)c1[nH]c2cc(Cl)ccc2c1C(C(=O)NC(C)(C)C)N(Cc1cc(F)c(F)c(F)c1)C(=O)CCCCCCn1cc(CCCOc2cc3[nH]c(CNc4nc(N5CCOCC5)nc5c4ncn5C(C)C)nc3cc2F)nn1` (centres undefined), the Activity entry is “Dose-dependent-effect; Hook Effect Was Not Observed” with HeLa [1] and more than 60% with HeLa [3]. The DC50 in assay [2] was 2.4 nM.

Turning to `CNC(=O)COc1cc2cc(Nc3nc(N4CCC(c5cn(CCCCCCCCCOc6ccc7c(c6)C(=O)N(C6CCC(=O)NC6=O)C7=O)nn5)CC4)ncc3Cl)ccc2n(C)c1=O` (centres undefined), in [4], the outcome was Active.

On to `CCOC(=O)c1[nH]c2cc(Cl)ccc2c1C(C(=O)NC(C)(C)C)N(Cc1cc(F)c(F)c(F)c1)C(=O)CCCCCn1cc(CCCOc2cc3[nH]c(CNc4nc(N5CCOCC5)nc5c4ncn5C(C)C)nc3cc2F)nn1` (centres undefined), for which, in the assay with HeLa [3], the Activity was more than 60%.

In the case of `Cc1ncsc1-c1ccc([C@H](C)NC(=O)[C@@H]2C[C@@H](O)CN2C(=O)[C@H](NC(=O)CCCCCCCCCCn2cc(CCCOc3cc4[nH]c(CNc5nc(N6CCOCC6)nc6c5ncn6C(C)C)nc4cc3F)nn2)C(C)(C)C)cc1`, the Activity in [5] is more than 60%.

In the case of `CNC(=O)COc1cc2cc(Nc3nc(N4CCC(c5cn(CCCCCCCCCCOc6ccc7c(c6)C(=O)N(C6CCC(=O)NC6=O)C7=O)nn5)CC4)ncc3Cl)ccc2n(C)c1=O` (centres undefined), the result in [4] was Active.

As for `CNC(=O)COc1cc2cc(Nc3nc(N4CCC(c5cn(CCCCCCCCCCC(=O)N[C@@H](C(=O)N6C[C@H](O)C[C@H]6C(=O)N[C@@H](C)c6ccc(-c7scnc7C)cc6)C(C)(C)C)nn5)CC4)ncc3Cl)ccc2n(C)c1=O`, the DC50 in assay [6] was 3.1 nM. The Activity result in [6] (dose 500-1000 nM) is reported as “Dose-dependent-effect; Hook Effect Was Not Observed”. Moreover, in the assay on HEK293T, the outcome was Active.

Consider `Cc1ncsc1-c1ccc([C@H](C)NC(=O)[C@@H]2C[C@@H](O)CN2C(=O)[C@H](NC(=O)COCCCCn2cc(CCCOc3cc4[nH]c(CNc5nc(N6CCOCC6)nc6c5ncn6C(C)C)nc4cc3F)nn2)C(C)(C)C)cc1`, for which the DC50 in assay [7] turned out to be 2.7 nM. In addition, the Activity entry is “Dose-dependent-effect; Hook Effect Was Not Observed” in [7] (dose 500-1000 nM) and more than 60% in assay [5].

Turning to `Cc1ncsc1-c1ccc([C@H](C)NC(=O)[C@@H]2C[C@@H](O)CN2C(=O)[C@H](NC(=O)CCCCCCCCCCn2cc(CCC(=O)N3CCC(NC(=O)c4n[nH]cc4NC(=O)c4c(F)cccc4Cl)CC3)nn2)C(C)(C)C)cc1`, the DC50 in assay [8] came out at 362 nM.

As for `CNC(=O)COc1cc2cc(Nc3nc(N4CCC(c5cn(CCCCCCCOc6ccc7c(c6)C(=O)N(C6CCC(=O)NC6=O)C7=O)nn5)CC4)ncc3Cl)ccc2n(C)c1=O` (centres undefined), the DC50 in assay [9] came out at 7 nM. In addition, in assay [9] (dose 500-1000 nM), the Activity entry is “Dose-dependent-effect; Hook Effect Was Not Observed”. For the same compound, in [4], the result was Active.

Take `CNC(=O)COc1cc2cc(Nc3nc(N4CCC(c5cn(CCCCCCCCOc6ccc7c(c6)C(=O)N(C6CCC(=O)NC6=O)C7=O)nn5)CC4)ncc3Cl)ccc2n(C)c1=O` (centres undefined): the result in assay [4] was Active.

In the case of `Cc1ncsc1-c1ccc([C@H](C)NC(=O)[C@@H]2C[C@@H](O)CN2C(=O)[C@H](NC(=O)CCCCCCCCCCn2cc(CCC(=O)N3CCC(NC(=O)c4n[nH]cc4NC(=O)c4c(Cl)cccc4Cl)CC3)nn2)C(C)(C)C)cc1`, the DC50 in [8] turned out to be 454 nM.
